The target in the assay is T1, human M4 muscarinic acetylcholine receptor (Homo sapiens, UniProt P08173).
T1 construct: expressed in transfected cells; host or cells: CHO-K1
T1 sequence (P08173 1-479): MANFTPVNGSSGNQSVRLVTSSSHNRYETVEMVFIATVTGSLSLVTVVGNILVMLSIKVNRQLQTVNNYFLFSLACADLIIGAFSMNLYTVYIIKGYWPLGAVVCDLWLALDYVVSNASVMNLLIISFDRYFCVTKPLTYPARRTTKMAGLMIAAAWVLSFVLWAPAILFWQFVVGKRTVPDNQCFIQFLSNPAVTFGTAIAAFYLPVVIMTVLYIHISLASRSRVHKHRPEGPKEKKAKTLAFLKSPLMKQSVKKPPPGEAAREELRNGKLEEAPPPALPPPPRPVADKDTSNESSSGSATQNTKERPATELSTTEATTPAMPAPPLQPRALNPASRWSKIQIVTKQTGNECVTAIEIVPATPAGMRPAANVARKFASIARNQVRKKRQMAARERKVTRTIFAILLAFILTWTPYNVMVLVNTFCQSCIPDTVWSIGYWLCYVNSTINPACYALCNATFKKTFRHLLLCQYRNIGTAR
Kind of assay: human FLIPR-based M4 PAM assay (calcium mobilization, CHO-K1 cells with human M4 receptor and Gαqi5). To be noted: inflection point (IP) of dose response curve, acetylcholine added at 20% of maximum response, read-out: M4 FLIPPR Hu IP. It is filed as cell-based. The essentials: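 CHO-K1 cells stably expressing human M4 and Gαqi5, dye-loaded ~1 h at 37 °C, read on FLIPR Tetra. Test compound added at increasing concentrations 4 min before acetylcholine at an EC20 concentration, sometimes followed by an EC70 addition. Dose-response curves fit to a 4-parameter logistic; result is the curve inflection point.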

Here are results for 1 molecule from patent US10981902B2 (Merck Sharp & Dohme Corp., priority 2017, dated 2021).

pEC50: −log10 of the molar value.

Take `CC(C)(C)Cc1ncc(-c2ccc(C(F)F)nc2-c2ccn3cnnc3c2)o1` [Example 30, 5-(2-([1,2,4]triazolo-[4,3-a]pyridin-7-yl)-6-(difluoromethyl)-pyridin-3-yl)-2-neo-pentyloxazole]: the pEC50 is 7.07.
